This note sets out measurements from ChEMBL document CHEMBL5726109, “Histone deacetylase inhibitors and compositions and methods of use thereof” (2017).

In this experiment the target is Histone deacetylase 4 (Homo sapiens, UniProt P56524). Nature of the experiment: Inhibition Assay: 2 μl (200×) of each diluted solution and each control (full activity: 100% DMSO alone or full inhibition 1 mM) is stamped into V-bottomed polypropylene 384-well compound plates using either the Bravo (384-well head from Agilent) or 12.5 μl 16-channel Matrix multi-channel pipette (Matrix Technologies Ltd).

Structures are written as SMILES.

Chain of Histone deacetylase 4 (P56524 whole entry): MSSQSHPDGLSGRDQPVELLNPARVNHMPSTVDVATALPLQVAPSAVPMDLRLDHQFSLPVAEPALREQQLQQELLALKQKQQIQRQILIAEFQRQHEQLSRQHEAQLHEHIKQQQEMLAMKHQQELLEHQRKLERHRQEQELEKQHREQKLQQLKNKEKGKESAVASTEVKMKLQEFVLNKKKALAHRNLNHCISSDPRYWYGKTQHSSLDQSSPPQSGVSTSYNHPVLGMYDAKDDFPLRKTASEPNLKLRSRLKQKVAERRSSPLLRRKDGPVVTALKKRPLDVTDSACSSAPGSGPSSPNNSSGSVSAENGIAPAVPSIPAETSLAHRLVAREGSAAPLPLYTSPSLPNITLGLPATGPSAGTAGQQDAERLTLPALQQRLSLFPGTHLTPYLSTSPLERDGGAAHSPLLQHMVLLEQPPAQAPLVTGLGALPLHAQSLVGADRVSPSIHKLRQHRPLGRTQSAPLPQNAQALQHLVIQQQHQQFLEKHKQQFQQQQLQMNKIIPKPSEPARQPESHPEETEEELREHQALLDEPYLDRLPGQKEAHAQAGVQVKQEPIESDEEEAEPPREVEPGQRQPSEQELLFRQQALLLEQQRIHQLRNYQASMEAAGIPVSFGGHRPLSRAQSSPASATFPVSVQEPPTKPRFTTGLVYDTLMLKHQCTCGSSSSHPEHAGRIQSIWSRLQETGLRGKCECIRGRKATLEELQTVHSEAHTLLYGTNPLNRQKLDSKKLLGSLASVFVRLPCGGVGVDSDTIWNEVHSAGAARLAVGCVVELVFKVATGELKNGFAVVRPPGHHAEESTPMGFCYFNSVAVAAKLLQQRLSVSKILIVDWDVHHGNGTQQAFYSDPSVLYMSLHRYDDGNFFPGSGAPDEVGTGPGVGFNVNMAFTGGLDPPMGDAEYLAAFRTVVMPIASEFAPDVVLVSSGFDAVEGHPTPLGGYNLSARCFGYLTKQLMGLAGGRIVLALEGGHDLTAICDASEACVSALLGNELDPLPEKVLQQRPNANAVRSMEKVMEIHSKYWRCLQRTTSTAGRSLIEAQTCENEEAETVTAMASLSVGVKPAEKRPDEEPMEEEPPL

The molecule `Cc1c(F)cccc1[C@@]1(C(=O)NO)C=C(c2cnccn2)CC1` showed a 50% inhibitory concentration (IC50) of 2400 nM.
